Among the test systems are HCT-116 colon; TK-10 renal; SK-OV-3 ovarian; MDA-MB-435; HOP-62 NSCLC; SF-539 CNS; HS 578T breast; MALME-3M melanoma; SNB-19 CNS; 786-0 renal.
Assay in all cases: growth of human tumour cells (NCI), 48 h

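Growth conditions: 96-well plates. Treatment: test compound, 48 hours, 5 concentrations. Analysis: linear interpolation between bracketing concentrations; unreached endpoints set to highest concentration. Abbreviation: GI50, concentration required for 50% inhibition of growth. TGI: concentration producing complete growth inhibition.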

`NC1CCC[C@@H](O)[C@H]1O` (stereo partly drawn): the TGI in the test with HCT-116 colon, with TK-10 renal, with SK-OV-3 ovarian, with MDA-MB-435, in the test with HOP-62 NSCLC and in the test on SF-539 CNS was > 100 µM in each case. Besides, the TGI in the test with HS 578T breast, in the test with MALME-3M melanoma, in the test on SNB-19 CNS and in the test on 786-0 renal was > 100 µM each time. Besides, the GI50 in the test on TK-10 renal was > 100 µM.
Consider `CCc1ccc(CCC(=O)Nc2ncc(Cc3ccccc3)s2)o1`, for which the GI50 with HCT-116 colon is 1.05 µM; in the test on TK-10 renal, 23 µM; with SK-OV-3 ovarian it was 2.81 µM; in the test on MDA-MB-435, 0.301 µM; in the test with HOP-62 NSCLC, 2.91 µM; in the test on SF-539 CNS it was 1.67 µM. The GI50 in the test with HS 578T breast is 2.29 µM; with MALME-3M melanoma, 18.3 µM; with SNB-19 CNS, 3.92 µM; in the test with 786-0 renal, 6.95 µM. Also, the TGI in the test with HCT-116 colon was > 100 µM; in the test with TK-10 renal it was > 100 µM; in the test with SK-OV-3 ovarian it was > 100 µM; in the test with MDA-MB-435, 10.1 µM; with HOP-62 NSCLC it was > 100 µM; with SF-539 CNS, 4.46 µM. For the same compound, the TGI with HS 578T breast, with MALME-3M melanoma, in the test on SNB-19 CNS and in the test with 786-0 renal was > 100 µM each time.
For `CN1CCN(Cc2ccc(NC(=O)c3[nH]ncc3Nc3ncnc4c3CCC4)cc2)CC1`, the GI50 is 0.454 µM with HCT-116 colon; 4.02 µM in the test with TK-10 renal; 0.185 µM in the test with SK-OV-3 ovarian; 1.8 µM in the test on MDA-MB-435; 2.69 µM in the test on HOP-62 NSCLC; 0.52 µM in the test with SF-539 CNS. The GI50 with HS 578T breast is 0.705 µM; in the test with MALME-3M melanoma, 3.26 µM; with SNB-19 CNS, 2.87 µM; with 786-0 renal, 2.24 µM. Besides, the TGI is 11.4 µM in the test with HCT-116 colon; 8.85 µM in the test on TK-10 renal; 17.5 µM in the test with SK-OV-3 ovarian; 12.3 µM in the test with MDA-MB-435; 11.5 µM with HOP-62 NSCLC; 2.61 µM in the test on SF-539 CNS. The TGI in the test with HS 578T breast amounted to 6.28 µM; in the test on MALME-3M melanoma, 8.06 µM; in the test on SNB-19 CNS, 14.8 µM; with 786-0 renal, 11 µM.
On to `Nc1ncc(-c2ccc(C(F)(F)F)cc2)c(NC2CCCCCC2)n1`, for which the GI50 in the test with HCT-116 colon was 20.2 µM; in the test on TK-10 renal, 54.5 µM; in the test with SK-OV-3 ovarian it was > 100 µM; in the test on MDA-MB-435, 35 µM; in the test on HOP-62 NSCLC it was 54.7 µM; with SF-539 CNS it was 52.5 µM. Besides, the GI50 was 25.5 µM in the test on HS 578T breast, 18.6 µM in the test on MALME-3M melanoma, 47.4 µM with SNB-19 CNS and 32.2 µM in the test with 786-0 renal. Also, the TGI in the test with HCT-116 colon, in the test with TK-10 renal, with SK-OV-3 ovarian, in the test with MDA-MB-435, in the test with HOP-62 NSCLC and in the test on SF-539 CNS was > 100 µM each time. The TGI in the test with HS 578T breast was > 100 µM; with MALME-3M melanoma, 81.8 µM; in the test on SNB-19 CNS it was > 100 µM; in the test with 786-0 renal, > 100 µM.
With `COC[C@H]1OC(=O)c2coc3c2[C@@]1(C)C1=C(C3=O)[C@@H]2CCC(=O)[C@@]2(C)C[C@H]1OC(C)=O`, the TGI with HCT-116 colon was > 100 µM; in the test with TK-10 renal it was > 100 µM; in the test with SK-OV-3 ovarian it was 23.5 µM; with MDA-MB-435, > 54.3 µM; in the test on HOP-62 NSCLC, > 100 µM; in the test with SF-539 CNS it was 31 µM. In addition, the TGI was 6.9 µM in the test on HS 578T breast, 39.3 µM in the test on MALME-3M melanoma, > 100 µM in the test on SNB-19 CNS and > 100 µM with 786-0 renal. The values for the GI50 with SK-OV-3 ovarian, in the test with HS 578T breast and with MALME-3M melanoma were 2.22 µM, 0.341 µM and 1.44 µM, respectively.
On to `Cc1ccc(NS(=O)(=O)c2cc(C)ccc2C)cc1`, for which the GI50 in the test with HCT-116 colon was 3.55 µM; in the test on TK-10 renal, 10.2 µM; with SK-OV-3 ovarian, 3.68 µM; in the test with MDA-MB-435, 0.351 µM; in the test on HOP-62 NSCLC, 4.49 µM; with SF-539 CNS, 4.21 µM. The GI50 is 10.9 µM with HS 578T breast, 5.36 µM with MALME-3M melanoma, 4.36 µM in the test on SNB-19 CNS and 10.6 µM in the test with 786-0 renal. Further, the TGI with HCT-116 colon was 20.4 µM; in the test on TK-10 renal, 37.7 µM; in the test with SK-OV-3 ovarian, 21.3 µM; in the test on MDA-MB-435, 2.57 µM; in the test with HOP-62 NSCLC, > 100 µM; with SF-539 CNS, 15.1 µM. Also, the TGI was 77.7 µM in the test with HS 578T breast, 38.6 µM in the test with MALME-3M melanoma, > 100 µM in the test with SNB-19 CNS and 31.4 µM with 786-0 renal.
Regarding `COc1ccc(C(=O)c2cc(OC)c(OC)c(OC)c2)cc1O`, the GI50 with HCT-116 colon was 0.0376 µM; in the test with TK-10 renal, > 61.5 µM; in the test with SK-OV-3 ovarian, 0.395 µM; with MDA-MB-435 it was < 0.01 µM; with HOP-62 NSCLC, 0.0931 µM; in the test with SF-539 CNS, 0.0112 µM. Moreover, the GI50 in the test on HS 578T breast is 0.028 µM; with MALME-3M melanoma it was > 100 µM; with SNB-19 CNS, 0.268 µM; in the test on 786-0 renal it was 0.914 µM. Moreover, the TGI in the test on HCT-116 colon is > 100 µM; in the test on TK-10 renal, > 100 µM; with SK-OV-3 ovarian it was > 100 µM; in the test with HOP-62 NSCLC, > 100 µM; in the test on SF-539 CNS it was 0.0557 µM; with HS 578T breast, > 100 µM. Besides, the TGI in the test with MALME-3M melanoma, in the test on SNB-19 CNS and in the test on 786-0 renal was > 100 µM throughout.
As to `O=C(Nc1ccc2oc(=O)c(C(=O)O)cc2c1)Oc1ccccc1`, the TGI in the test on HCT-116 colon, in the test with TK-10 renal, with SK-OV-3 ovarian, in the test on MDA-MB-435, in the test with HOP-62 NSCLC and in the test with SF-539 CNS was > 100 µM each time. For the same compound, the TGI in the test with HS 578T breast, in the test with MALME-3M melanoma, in the test with SNB-19 CNS and in the test on 786-0 renal was > 100 µM in each case.
Regarding `CC(=O)Oc1cccc2c1C(=O)C(Br)(Br)CCC2`, the TGI worked out at 9.66 µM with HCT-116 colon; 30.8 µM in the test with TK-10 renal; 24.9 µM with SK-OV-3 ovarian; 13.4 µM in the test on MDA-MB-435; 22 µM in the test with HOP-62 NSCLC; 23.1 µM in the test on SF-539 CNS. Besides, the TGI with HS 578T breast is 39.7 µM; in the test with MALME-3M melanoma it was 5.59 µM; in the test on SNB-19 CNS, 25.2 µM; with 786-0 renal, 11.4 µM.
